Data set [1] deals with HCV replicons (NS3-NS5B regions of HCV type 1b) in Huh-7 luc/neo cells. Description: Replicon assay (Huh-Luc cells, luciferase readout). The class given is cell-based. The following applies: Hepatitis C virus, Huh-7, 72 h, three days incubation, luciferase activity. An excerpt: It will be appreciated that it is important to distinguish between compounds that specifically interfere with HCV functions from those that exert cytotoxic or cytostatic effects in the HCV replicon model, and as a consequence cause a decrease in HCV RNA or linked reporter enzyme concentration. Assays are known in the field for the evaluation of cellular cytotoxicity based for example on the activity of mitochondrial enzymes using fluorogenic redox dyes such as resazurin. Furthermore, cellular counter screens exist for the evaluation of non-selective inhibition of linked reporter gene activity, such as firefly luciferase.
The compounds of formula (I) were examined for activity in the inhibition of HCV RNA replication in a cellular assay. […] The cellular assay was based on a bicistronic expression construct, as described by Lohmann et al. (1999) Science vol. […]
The replicon cells were plated in 384 well plates in the presence of the test and control compounds which were added in various concentrations. Following an incubation of three days, HCV replication was measured by assaying luciferase activity (using standard luciferase assay substrates and reagents and a Perkin Elmer ViewLux™ ultraHTS microplate imager). […] The inhibitory activity of the compound on luciferase activity was monitored on the Huh-Luc cells, enabling a dose-response curve for each test compound.

A further data set addresses HCV NS3/4A protease (Hepatitis C virus genotype 1a, UniProt P27958). Kind of data set: biochemical. Particulars: full-length NS3 protease 1 nM, 25 μM NS4A cofactor, competitive inhibition model; read-out: Ki (nM) Enzymatic assay. The protocol: [Landro, 1997 #Biochem 36 9340-9348]. […] The solutions were stored at −20° C. between measurements.
For data set [2] the following is noted: rcm bond, DCE.
Another data set concerns HCV. The following applies: sustained administration; mutations D168V, D168A and/or A156S; cited from earlier work.
The conditions of data set [3]: rcm bond; 14-membered ring; Hoveyda-Grubbs II (25 mol%); DCE; 1.46 mM; 150.0 °C.

The structures appear in SMILES notation. Like-named read-outs stand apart in the source and are kept apart here.

By EC50 is commonly meant the midpoint of the concentration-response curve. Read a low EC50 as greater potency. A word on the Ki: it is the equilibrium dissociation constant of an inhibitor or competing ligand from its target. In data set [1], `CN1CCCC/C=C\[C@@H]2C[C@@]2(C(=O)NS(=O)(=O)C2CC2)NC(=O)[C@@H]2C[C@@H](OC(=O)Nc3ccccc3F)C[C@H]2C1=O` [Compound 25, (2-Fluorophenyl)carbamic acid 4-cyclopropanesulfonyl-aminocarbonyl-13-methyl-2,14-dioxo-3,13-diazatricyclo[13.3.0.0^4,6]octadec-7-en-17-yl ester] showed an EC50 of 8.4 µM. In addition, the Ki on HCV NS3/4A protease was 51 nM.

Compound `CN1CCCCC=CC2CC2(C(=O)NS(=O)(=O)C2CC2)NC(=O)C2CC(O)CC2C1=O` (centres unmarked) returned a ring closure, isolated yield in data set [2] (14-membered ring, Hoveyda-Grubbs II (15 mol%), 2.07 mM) of 77%.

Regarding `CCOC(=O)c1ccccc1NC(=O)O[C@@H]1C[C@H]2C(=O)N[C@]3(C(=O)NS(=O)(=O)C4CC4)C[C@H]3/C=C\CCCCN(C)C(=O)[C@@H]2C1` [Compound 26, 2-(4-Cyclopropanesulfonylaminocarbonyl-13-methyl-2,14-dioxo-3,13-diaza-tricyclo-[13.3.0.0^4,6]octadec-7-en-17-yloxycarbonylamino)-benzoic acid ethyl ester], the EC50 in data set [1] was 0.0492 µM.

As to `COc1ccc2c(O[C@@H]3C[C@H]4C(=O)N[C@]5(C(=O)O)C[C@H]5/C=C\CCCCC[C@H](NC(=O)OC5CCCC5)C(=O)N4C3)cc(-c3csc(NC(C)C)n3)nc2c1` [BILN-2061], the “selection of drug escape mutants” value in the data set on HCV is “selects HCV mutants which are resistant to the respective drug”.

With `CCC[C@H](NC(=O)[C@@H]1[C@H]2CCC[C@H]2CN1C(=O)[C@@H](NC(=O)[C@@H](NC(=O)c1cnccn1)C1CCCCC1)C(C)(C)C)C(=O)C(=O)NC1CC1` [VX-950], in the data set with HCV, the “selection of drug escape mutants” value is given as “selects HCV mutants which are resistant to the respective drug”.

With `CCOC(=O)C12CC1C=CCCCCCN(Cc1ccc(OC)cc1)C(=O)N1CC(O[Si](C)(C)C(C)(C)C)CC1C(=O)N2` (centres unmarked), the ring closure, isolated yield in data set [2] (from C=CCCCCCN(Cc1ccc(OC)cc1)C(=O)N1CC(O[Si](C)(C)C(C)(C)C)CC1C(=O)NC1(C(=O)OCC)CC1C=C, 15-membered ring, Hoveyda-Grubbs II (10 mol%), 1.6 mM) is 48%.

In data set [3], `CN1CCCCC=CC2CC2(C(=O)NS(=O)(=O)C2CC2)NC(=O)C2CC(OC(=O)Nc3ccccc3N3CCCCC3)CC2C1=O` (centres unmarked) displayed a ring closure, yield after HPLC of 36%.

The record behind these values is patent publication US7666834B2, “Macrocyclic inhibitors of hepatitis C virus” (Tibotec Pharmaceuticals Ltd., priority 2005, dated 2010).
